What is called IC50 is the midpoint of a concentration-inhibition curve.

Like-named read-outs stand apart in the source and are kept apart here.

The record followed here is patent US20240116921A1, “LACTAM (HETERO)[…] DERIVATIVES AS INHIBITORS OF ERBB2” (EnLiven Therapeutics, Inc., priority 2020, published 2024).

One assay concerns BT-474. Nature of the assay: Cell viability assay (CellTiter Glo), BT-474. The class given is cell-based. To be noted: Homo sapiens, read-out: IC50, cell viability, BT-474.
For the next assay, the system named is A431. Nature of the assay: Cell viability assay (CellTiter Glo), A431. The class given is cell-based. To be noted: Homo sapiens, A-431, A431 cells, 72 hours. A general note: ATP-based viability assays read luminescence as a measure of living cells.
A further assay deals with Ba/F3 ERBB2 wt (Homo sapiens, UniProt P04626). The assay can be described thus: Cell viability assay, Ba/F3 ERBB2 wt. It is filed as cell-based, mouse. The note with it: Ba/F3 ERBB2 wt cells, 72 hours, CellTiter Glo; read-out: IC50, cell viability, Ba/F3 ERBB2 wt. The protocol: (§1) Cells were treated with compounds, and cell viability was measured as a metric of kinase inhibition.
(§2) The Ba/F3 cell line is IL-3-dependent mouse cell line derived from the C3H mouse strain. Ba/F3 cell lines were engineered to express human ERBB2 or EGFR kinases, rendering the cells IL-3 independent. The lines were generated via retroviral transduction utilizing a Moloney murine leukemia virus (MMLV) promoter, and constructs are stably integrated into the cell genome. The sequences of the ERBB2 and EGFR genes used were NCBI Reference Sequences NM_004448.3 and NM_005228.3, respectively.
(§3) Similarly, Ba/F3 cell lines engineered to express EGFR, ERBB2, or ERBB2 mutants were grown, harvested, counted and seeded at 3000 cells per well in 96-well plates. A subset of wells contained media only (low control, “LC”).
(§4) Table B1 provides the growth media and number of cells seeded per well for the each cell line.
(§5) Plates were placed in a 37° C., 5% CO2 incubator for 72 hours. Plates were then removed from the incubator and equilibrated for 15 minutes at room temperature. 40 μl of CellTiter Glo reagent (Promega) was added to measure the relative level of metabolically active cells by quantifying intracellular ATP concentrations. Plates were incubated for 30 minutes at room temperature, and luminescence was measured. Percent viability was normalized to a vehicle control only using the following formula: % viability=100×(Lumsample−LumLC)/(LumHC−Lum^LC). Graphical curves were fitted using a nonlinear regression model with a sigmoidal dose response.

For assay [1], the target named is Ba/F3 ERBB2 A775_G776insYVMA (Homo sapiens, UniProt P04626, DUP772-775, cells depend on it). The assay can be described thus: Cell viability assay, Ba/F3 ERBB2 A775_G776insYVMA. The class given is cell-based, mouse. The note with it: Ba/F3 ERBB2 A775_G776insYVMA cells, 72 hours, CellTiter Glo; Tables B2-B4; read-out: IC50, cell viability, Ba/F3 ERBB2 A775_G776insYVMA. An outline of the steps:
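Viability after 72 h compound treatment (37 °C, 5% CO2) was quantified by CellTiter-Glo luminescence of intracellular ATP, with sigmoidal dose-response fitting. Cells were retrovirally engineered Ba/F3 lines whose growth depends on the mutant human ERBB2 in place of IL-3, plated at 3000 per well.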

The next assay addresses Ba/F3 ERBB2-G776VC (Homo sapiens, UniProt P04626, DELINS776-776VC, cells depend on it). Nature of the assay: Cell viability assay, Ba/F3 ERBB2-G776VC. It is filed as cell-based, mouse. The note with it: 72 hours, CellTiter Glo, read-out: IC50, cell viability, Ba/F3 ERBB2-G776VC. On the procedure:
as §1, §2, §3, §4, §5

In assay [2] the target is Ba/F3 ERBB2-P780_Y781insGSP (Homo sapiens, UniProt P04626, DUP778-780, cells depend on it). Nature of the assay: Cell viability assay, Ba/F3 ERBB2-P780_Y781insGSP. The class given is cell-based, mouse. To be noted: 72 hours, CellTiter Glo, read-out: IC50, cell viability, Ba/F3 ERBB2-P780_Y781insGSP. The protocol:
as §1, §2, §3, §4
Plates were placed in a 37° C., 5% CO2 incubator for 72 hours. Plates were then removed from the incubator and equilibrated for 15 minutes at room temperature. 40 μl of CellTiter Glo reagent (Promega) was added to measure the relative level of metabolically active cells by quantifying intracellular ATP concentrations. Plates were incubated for 30 minutes at room temperature, and luminescence was measured. […] Graphical curves were fitted using a nonlinear regression model with a sigmoidal dose response.

Assay [3] deals with Ba/F3 ERBB2-V777_G778insGC (Homo sapiens, UniProt P04626, INS778CG, cells depend on it). The assay can be described thus: Cell viability assay, Ba/F3 ERBB2-V777_G778insGC. The class given is cell-based, mouse. To be noted: 72 hours, CellTiter Glo, read-out: IC50, cell viability, Ba/F3 ERBB2-V777_G778insGC. On the procedure: as §1, §2, §3, §4, §5
A further assay concerns the target Ba/F3 ERBB2-V777L (Homo sapiens, UniProt P04626, V777L, cells depend on it). Nature of the assay: Cell viability assay, Ba/F3 ERBB2-V777L. The class given is cell-based, mouse. The note with it: 72 hours, CellTiter Glo, read-out: IC50, cell viability, Ba/F3 ERBB2-V777L. On the procedure: as §1, §2, §3, §4, §5
For the next assay, the target named is Ba/F3 ERBB2-T798M (Homo sapiens, UniProt P04626, T798M, cells depend on it). The assay can be described thus: Cell viability assay, Ba/F3 ERBB2-T798M. The note with it: 72 hours, CellTiter Glo, read-out: IC50, cell viability, Ba/F3 ERBB2-T798M. The class given is cell-based, mouse. On the procedure:
as §1, §2, §3, §4, §5

A further assay addresses Ba/F3 ERBB2-L755S (Homo sapiens, UniProt P04626, L755S, cells depend on it). Nature of the assay: Cell viability assay, Ba/F3 ERBB2-L755S. It is filed as cell-based, mouse. The note with it: 72 hours, CellTiter Glo, read-out: IC50, cell viability, Ba/F3 ERBB2-L755S. On the procedure: as §1, §2, §3, §4, §5
The target in another assay is Ba/F3 ERBB2-L869R (Homo sapiens, UniProt P04626, L869R, cells depend on it). The assay can be described thus: Cell viability assay, Ba/F3 ERBB2-L869R. The class given is cell-based, mouse. To be noted: 72 hours, CellTiter Glo, read-out: IC50, cell viability, Ba/F3 ERBB2-L869R. On the procedure:
as §1, §2, §3, §4, §5

Assay [4] has as its target T1, phosphorylated ERBB2 (pERBB2) (Homo sapiens, UniProt P04626).
T1 construct: endogenous in cells; host or cells: BT-474
The assay can be described thus: Detection of phosphorylated ERBB2 (pERBB2) by ELISA in BT-474 cells. The class given is cell-based. To be noted: four hours incubation. An outline of the steps: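 Phospho-ERBB2 in lysates was quantified by sandwich ELISA (A450, TMB) after 4 h compound exposure at 37 °C of BT-474 cells seeded at 2.0×10^4 per well. Compounds tested at 10 µM to 0.01 nM final in four-fold steps; activity normalized to DMSO (0.1%) high and cell-free low controls.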
A general note: An ELISA detects its analyte on a solid surface through an enzyme-linked reagent.

Another assay relates to MDA-MB-175VII. Nature of the assay: Cell viability assay (CellTiter Glo), MDA-MB-175VII. It is filed as cell-based. The note with it: Homo sapiens, read-out: IC50, cell viability, MDA MB 175VII. On the procedure: as §1, §2, §3, §4, §5
Another assay addresses Ba/F3 EGFR wt (Homo sapiens, UniProt P00533). Nature of the assay: Cell viability assay, Ba/F3 EGFR wt. It is filed as cell-based, mouse. To be noted: Ba/F3 EGFR wt cells, 72 hours, CellTiter Glo; read-out: IC50, cell viability, Ba/F3 EGFR wt. The protocol:
as §1, §2, §3, §4
Plates were placed in a 37° C., 5% CO2 incubator for 72 hours. Plates were then removed from the incubator and equilibrated for 15 minutes at room temperature. 40 μl of CellTiter Glo reagent (Promega) was added to measure the relative level of metabolically active cells by quantifying intracellular ATP concentrations. Plates were incubated for 30 minutes at room temperature, and luminescence was measured. […]

The mark [5] stands for this setting: BT-474 cells, 72 hours, CellTiter Glo.

Ba/F3 ERBB2 A775_G776insYVMA, sequence (P04626 with tags, fused parts or gaps DUP772-775): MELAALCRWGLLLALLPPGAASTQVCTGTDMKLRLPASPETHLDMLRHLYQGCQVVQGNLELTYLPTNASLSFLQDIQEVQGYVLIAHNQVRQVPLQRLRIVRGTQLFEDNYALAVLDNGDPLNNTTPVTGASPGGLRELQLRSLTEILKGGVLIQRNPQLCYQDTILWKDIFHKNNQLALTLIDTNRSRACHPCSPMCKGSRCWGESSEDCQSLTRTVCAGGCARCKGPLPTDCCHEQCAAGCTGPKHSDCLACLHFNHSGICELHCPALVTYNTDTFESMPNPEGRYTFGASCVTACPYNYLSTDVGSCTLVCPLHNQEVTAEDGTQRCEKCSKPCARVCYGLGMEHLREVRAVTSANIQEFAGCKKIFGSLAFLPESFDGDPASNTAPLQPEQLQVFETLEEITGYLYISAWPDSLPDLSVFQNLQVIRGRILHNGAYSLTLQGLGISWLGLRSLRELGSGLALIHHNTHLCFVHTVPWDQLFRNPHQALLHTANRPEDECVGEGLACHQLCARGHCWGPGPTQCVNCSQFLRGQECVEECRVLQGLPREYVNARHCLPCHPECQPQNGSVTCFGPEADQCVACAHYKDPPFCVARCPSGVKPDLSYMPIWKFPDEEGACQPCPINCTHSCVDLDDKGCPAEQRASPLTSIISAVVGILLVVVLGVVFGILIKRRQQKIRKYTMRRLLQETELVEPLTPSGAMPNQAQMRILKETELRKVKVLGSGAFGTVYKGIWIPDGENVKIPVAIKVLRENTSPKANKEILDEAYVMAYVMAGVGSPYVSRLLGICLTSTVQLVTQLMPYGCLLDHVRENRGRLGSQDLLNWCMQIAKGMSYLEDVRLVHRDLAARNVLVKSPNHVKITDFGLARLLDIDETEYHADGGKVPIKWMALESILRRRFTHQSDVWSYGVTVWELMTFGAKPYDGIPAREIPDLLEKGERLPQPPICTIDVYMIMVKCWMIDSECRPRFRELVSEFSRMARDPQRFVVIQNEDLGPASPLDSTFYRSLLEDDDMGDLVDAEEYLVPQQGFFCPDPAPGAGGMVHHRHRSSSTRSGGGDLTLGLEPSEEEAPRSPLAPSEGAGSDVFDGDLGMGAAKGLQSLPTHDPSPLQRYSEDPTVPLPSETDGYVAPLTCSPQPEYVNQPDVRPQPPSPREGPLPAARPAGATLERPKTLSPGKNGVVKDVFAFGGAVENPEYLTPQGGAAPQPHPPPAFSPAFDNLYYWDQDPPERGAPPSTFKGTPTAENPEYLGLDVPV
Ba/F3 ERBB2-G776VC, sequence (P04626 with tags, fused parts or gaps DELINS776-776VC): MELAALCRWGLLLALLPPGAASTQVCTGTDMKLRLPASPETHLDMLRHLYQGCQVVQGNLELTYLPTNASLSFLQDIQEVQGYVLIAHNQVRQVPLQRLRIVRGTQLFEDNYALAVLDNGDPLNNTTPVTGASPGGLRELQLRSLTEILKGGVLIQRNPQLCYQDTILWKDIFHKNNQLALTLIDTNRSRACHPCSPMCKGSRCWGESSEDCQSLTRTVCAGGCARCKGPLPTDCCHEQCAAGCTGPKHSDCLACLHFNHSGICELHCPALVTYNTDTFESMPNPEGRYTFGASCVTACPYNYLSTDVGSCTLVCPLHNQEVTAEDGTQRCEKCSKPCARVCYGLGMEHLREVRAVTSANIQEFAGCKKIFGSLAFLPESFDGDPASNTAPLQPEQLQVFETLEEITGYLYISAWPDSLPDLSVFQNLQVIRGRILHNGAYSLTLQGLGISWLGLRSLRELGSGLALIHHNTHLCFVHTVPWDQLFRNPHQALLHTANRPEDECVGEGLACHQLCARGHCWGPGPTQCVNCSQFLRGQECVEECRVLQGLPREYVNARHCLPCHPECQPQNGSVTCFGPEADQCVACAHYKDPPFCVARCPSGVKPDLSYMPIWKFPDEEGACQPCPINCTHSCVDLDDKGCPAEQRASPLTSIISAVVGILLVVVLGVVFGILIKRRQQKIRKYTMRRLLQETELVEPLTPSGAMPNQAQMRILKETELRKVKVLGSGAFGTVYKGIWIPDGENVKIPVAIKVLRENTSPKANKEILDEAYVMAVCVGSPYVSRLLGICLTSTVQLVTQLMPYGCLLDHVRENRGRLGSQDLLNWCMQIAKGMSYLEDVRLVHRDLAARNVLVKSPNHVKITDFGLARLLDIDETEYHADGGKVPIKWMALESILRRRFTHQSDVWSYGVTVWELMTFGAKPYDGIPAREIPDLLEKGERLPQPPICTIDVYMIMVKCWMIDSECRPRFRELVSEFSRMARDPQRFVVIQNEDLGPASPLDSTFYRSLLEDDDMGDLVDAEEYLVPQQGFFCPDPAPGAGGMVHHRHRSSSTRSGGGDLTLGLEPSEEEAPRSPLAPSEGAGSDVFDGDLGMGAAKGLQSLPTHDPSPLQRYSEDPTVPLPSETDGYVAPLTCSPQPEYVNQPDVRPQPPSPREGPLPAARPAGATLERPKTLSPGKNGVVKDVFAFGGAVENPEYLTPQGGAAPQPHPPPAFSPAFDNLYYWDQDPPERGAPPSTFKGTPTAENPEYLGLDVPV
Ba/F3 ERBB2-T798M, sequence (P04626 whole entry T798M): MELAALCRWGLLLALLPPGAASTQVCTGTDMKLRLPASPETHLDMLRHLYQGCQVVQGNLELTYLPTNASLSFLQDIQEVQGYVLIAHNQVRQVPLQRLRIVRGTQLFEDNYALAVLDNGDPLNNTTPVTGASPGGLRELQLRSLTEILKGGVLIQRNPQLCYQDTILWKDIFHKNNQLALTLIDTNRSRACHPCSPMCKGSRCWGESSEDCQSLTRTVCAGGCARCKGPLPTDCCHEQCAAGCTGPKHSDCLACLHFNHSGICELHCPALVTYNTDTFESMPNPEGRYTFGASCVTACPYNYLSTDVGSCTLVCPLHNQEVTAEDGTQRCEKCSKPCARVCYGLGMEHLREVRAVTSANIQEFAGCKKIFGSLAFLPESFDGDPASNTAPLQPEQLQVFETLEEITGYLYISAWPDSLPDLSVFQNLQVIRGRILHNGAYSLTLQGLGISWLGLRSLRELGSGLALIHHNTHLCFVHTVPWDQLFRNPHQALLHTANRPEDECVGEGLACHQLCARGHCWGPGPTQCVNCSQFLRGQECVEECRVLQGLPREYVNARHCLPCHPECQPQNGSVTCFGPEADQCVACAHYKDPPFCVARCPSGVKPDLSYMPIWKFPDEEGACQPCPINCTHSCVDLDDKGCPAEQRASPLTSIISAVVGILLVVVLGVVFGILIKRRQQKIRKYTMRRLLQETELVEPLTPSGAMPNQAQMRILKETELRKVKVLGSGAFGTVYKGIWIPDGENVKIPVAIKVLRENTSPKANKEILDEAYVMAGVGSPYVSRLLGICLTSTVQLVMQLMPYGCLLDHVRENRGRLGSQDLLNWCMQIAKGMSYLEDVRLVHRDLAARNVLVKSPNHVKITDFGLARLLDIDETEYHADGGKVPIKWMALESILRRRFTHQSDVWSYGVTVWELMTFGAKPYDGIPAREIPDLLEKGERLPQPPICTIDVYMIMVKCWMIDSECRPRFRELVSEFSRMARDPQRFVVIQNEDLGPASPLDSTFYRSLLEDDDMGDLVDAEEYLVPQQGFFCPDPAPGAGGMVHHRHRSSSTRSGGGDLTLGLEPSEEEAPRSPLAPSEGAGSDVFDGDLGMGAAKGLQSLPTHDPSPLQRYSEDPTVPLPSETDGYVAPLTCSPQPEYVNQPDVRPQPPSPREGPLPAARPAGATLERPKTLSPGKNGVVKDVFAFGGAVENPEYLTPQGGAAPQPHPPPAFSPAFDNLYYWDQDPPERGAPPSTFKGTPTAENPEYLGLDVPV
Ba/F3 ERBB2-V777L, sequence (P04626 whole entry V777L): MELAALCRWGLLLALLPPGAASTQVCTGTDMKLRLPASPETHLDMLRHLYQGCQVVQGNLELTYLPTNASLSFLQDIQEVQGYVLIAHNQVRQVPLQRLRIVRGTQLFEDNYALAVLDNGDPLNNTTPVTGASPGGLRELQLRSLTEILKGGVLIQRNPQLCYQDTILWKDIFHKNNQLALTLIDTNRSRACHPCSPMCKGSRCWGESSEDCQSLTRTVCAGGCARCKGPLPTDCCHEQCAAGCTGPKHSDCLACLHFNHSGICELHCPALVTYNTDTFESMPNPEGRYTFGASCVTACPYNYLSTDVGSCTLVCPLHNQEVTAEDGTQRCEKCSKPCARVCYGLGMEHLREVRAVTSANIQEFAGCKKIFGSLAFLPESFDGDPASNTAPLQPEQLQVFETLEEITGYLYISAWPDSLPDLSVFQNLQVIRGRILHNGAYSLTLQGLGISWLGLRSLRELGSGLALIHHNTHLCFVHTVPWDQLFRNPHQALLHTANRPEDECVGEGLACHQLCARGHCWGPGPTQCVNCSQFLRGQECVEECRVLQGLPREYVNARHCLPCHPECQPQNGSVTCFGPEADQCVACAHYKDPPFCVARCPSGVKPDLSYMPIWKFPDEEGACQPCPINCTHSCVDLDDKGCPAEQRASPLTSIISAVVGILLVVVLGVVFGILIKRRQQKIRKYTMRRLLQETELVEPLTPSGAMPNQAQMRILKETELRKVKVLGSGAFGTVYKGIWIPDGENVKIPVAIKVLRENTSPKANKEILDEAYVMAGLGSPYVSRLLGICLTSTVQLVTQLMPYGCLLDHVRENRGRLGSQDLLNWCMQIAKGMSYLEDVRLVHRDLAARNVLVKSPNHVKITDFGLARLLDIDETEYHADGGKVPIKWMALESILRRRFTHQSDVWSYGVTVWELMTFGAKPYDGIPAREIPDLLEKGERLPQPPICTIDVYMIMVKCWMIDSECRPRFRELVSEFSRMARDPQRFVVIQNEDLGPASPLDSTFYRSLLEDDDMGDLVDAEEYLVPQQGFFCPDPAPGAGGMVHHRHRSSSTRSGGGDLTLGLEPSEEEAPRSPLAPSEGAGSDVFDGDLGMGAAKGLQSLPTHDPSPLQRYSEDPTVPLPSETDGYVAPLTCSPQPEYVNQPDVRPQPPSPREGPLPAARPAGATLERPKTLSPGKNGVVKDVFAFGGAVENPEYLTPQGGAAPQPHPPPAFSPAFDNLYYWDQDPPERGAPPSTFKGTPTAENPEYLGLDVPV

`C=C1CCN(c2ccc3ncnc(Nc4ccc(Oc5ccc(C)nc5)c(C)c4)c3c2)C1=O` [Compound 3, 1-[4-([3-methyl-4-[(6-methylpyridin-3-yl)oxy]phenyl]amino)quinazolin-6-yl]-3-methylidenepyrrolidin-2-one]: the values for the IC50 with BT-474 (setting [5]) and in the assay with A431 were 19.7 nM and 1140 nM, respectively. Also, the GI50 at Ba/F3 ERBB2 wt is 11 nM; in assay [1] it was 202 nM; at Ba/F3 ERBB2-G776VC it was 40 nM; in assay [2], 13 nM; in [3], 3.8 nM; at Ba/F3 ERBB2-V777L it was 4.7 nM. For the same compound, the results for the GI50 on Ba/F3 ERBB2-T798M, at Ba/F3 ERBB2-L755S and on Ba/F3 ERBB2-L869R were 656 nM, 172 nM and 47 nM, respectively.
As for `C=C1CCN(c2ccc3ncnc(Nc4ccc(Oc5ccn(C)c(=O)c5)c(C)c4)c3c2)C1=O` [Compound 5, 1-methyl-4-(2-methyl-4-[[6-(3-methylidene-2-oxopyrrolidin-1-yl)quinazolin-4-yl]amino]phenoxy)pyridin-2-one], the 50% inhibitory concentration (IC50) is 27.8 nM in the assay with BT-474 (setting [5]) and greater than 10000 nM in the assay on A431. Moreover, in assay [1], the GI50 is 236 nM.
In the same order, the values of `C=C1CCN(c2ccc3ncnc(Nc4ccc(Oc5cnc(C)cn5)c(C)c4)c3c2)C1=O` [Compound 6, 1-[4-([3-methyl-4-[(5-methylpyrazin-2-yl)oxy]phenyl]amino)quinazolin-6-yl]-3-methylidenepyrrolidin-2-one] are 16.1 nM, greater than 6520 nM and greater than 1000 nM.
On to `C=C1CCN(c2ccc3ncnc(Nc4ccc(Oc5ccn6ncnc6c5)c(C)c4)c3c2F)C1=O` [Compound 7, 1-[5-fluoro-4-[(3-methyl-4-[[1,2,4]triazolo[1,5-a]pyridin-7-yloxy]phenyl)amino]quinazolin-6-yl]-3-methylidenepyrrolidin-2-one], for which the IC50 in the assay on BT-474 (setting [5]) was 31.7 nM; in the assay with A431, greater than 10000 nM; in assay [4], 109 nM. The GI50 in [1] was greater than 1000 nM.
On to `C=C1CCN(c2ccc3ncnc(Nc4ccc(Cc5ccc(C)nc5)cc4)c3c2)C1=O` [Compound 8, 3-methylidene-1-[4-([4-[(6-methylpyridin-3-yl)methyl]phenyl]amino)quinazolin-6-yl]pyrrolidin-2-one], for which the results for the IC50 with BT-474 (setting [5]) and with A431 were 52.9 nM and 7500 nM, respectively.
The like results for `C=C1CCN(c2ccc3ncnc(Nc4ccc(Cc5ccn6ncnc6c5)cc4)c3c2)C1=O` [Compound 9, 3-methylidene-1-[4-[(4-[[1,2,4]triazolo[1,5-a]pyridin-7-ylmethyl]phenyl)amino]quinazolin-6-yl]pyrrolidin-2-one] were, in that order, 44.7 nM and greater than 10000 nM.
In the same order, the values of `C=C1CCN(c2ccc3ncnc(Nc4ccc(Oc5ccn6ncnc6c5)c(Cl)c4)c3c2)C1=O` [Compound 10, 1-[4-[(3-chloro-4-[[1,2,4]triazolo[1,5-a]pyridin-7-yloxy]phenyl)amino]quinazolin-6-yl]-3-methylidenepyrrolidin-2-one] are 27.1 nM and 673 nM.
The like results for `C=C1CCN(c2ccc3ncnc(Nc4ccc(Oc5ccn6ncnc6c5)c(F)c4)c3c2)C1=O` [Compound 11, 1-[4-[(3-fluoro-4-[[1,2,4]triazolo[1,5-a]pyridin-7-yloxy]phenyl)amino]quinazolin-6-yl]-3-methylidenepyrrolidin-2-one] were, in that order, 7670 nM and 6510 nM.
Regarding `C=C1CCN(c2ccc3ncnc(Nc4ccc(Oc5ccn(C(F)F)c(=O)c5)c(C)c4)c3c2)C1=O` [Compound 12, 1-(difluoromethyl)-4-(2-methyl-4-[[6-(3-methylidene-2-oxopyrrolidin-1-yl)quinazolin-4-yl]amino]phenoxy)pyridin-2-one], the half-maximal inhibitory concentration (IC50) in the assay on BT-474 (setting [5]) came to 20.4 nM; in the assay with A431, 7650 nM. Besides, the GI50 in assay [1] was found to be 113 nM.
As for `CCOc1cc2ncc(C#N)c(Nc3ccc(OCc4ccccn4)c(Cl)c3)c2cc1NC(=O)/C=C/CN(C)C` [Neratinib, neratinib, reference compound], the IC50 is 2.2 nM in the assay with BT-474 (BT-474, 72 h) and 7.1 nM in the assay on MDA-MB-175VII (MDA-MB-175-VII, 72 h).
In the case of `Cc1cc(Nc2ncnc3ccc(NC4=NC(C)(C)CO4)cc23)ccc1Oc1ccn2ncnc2c1` [Tucatinib, tucatinib, reference compound], the IC50 was 89 nM in the assay with MDA-MB-175VII (MDA MB 175VII cells, 72 hours, CellTiter Glo) and greater than 10000 nM with A431. In addition, the GI50 on Ba/F3 EGFR wt is greater than 10000 nM.
